Patent US5502057A, “Polysubstituted pyridines useful for treating lipoproteinanaemia and arteriosclerosis” (Bayer Aktiengesellschaft, priority 1988, dated 1996)
Counter-ions that a name gives are not always drawn.

Tested on: healthy beagle dogs
Assay: Subchronic action on blood cholesterol values of dogs (feeding experiment)
Type: in vivo, dog
Conditions: 8 mg/kg p.o. daily, after 2-week administration, cholestyramine (4 g/100 g of feed) in feed, compared with serum cholesterol before the administration period
Experimental: The subchronic action of the disubstituted pyridines on blood cholesterol values of dogs was tested in feeding experiments extending over several weeks. For this, the substance to be investigated was given p.o. once daily in a capsule to healthy beagle dogs together with the feed over a time period of several weeks. In addition, during the entire experimental period, i.e. before, during and after the administration period, the substance cholestyramine (4 g/100 g of feed) to be investigated was mixed with the feed as the […] sequestrant. Twice weekly, venous blood was taken from the dogs and the serum cholesterol was determined enzymatically. The serum cholesterol values during the administration period were compared with the serum cholesterol values before the administration period (controls).

For CC(C)c1nc(C(C)C)c(/C=C/C(O)CC(O)CC(=O)O)c(-c2ccc(F)cc2)c1/C=C/C(O)CC(O)CC(=O)O (stereo not shown) [Na salt of Example 8, 2,6-diisopropyl 4-(4-fluorophenyl)-3,5-di-(sodiumerythro-(E)-3,5-dihydroxy-hept-6-enoat-7-yl)-pyridine], the “Lowering of the serum cholesterol” value was “about 22.4%”.
